How the values were obtained:
MCF7 cancer cells = test: Cell cycle progression by propidium iodide flow cytometry, cancer cells; format: cell-based; conditions: 100 µM, 23hrs
Protocol: Since the proteins Geminin and Cdtl are key regulators of the cell cycle, the effect of the synthetic compound on the development of the cancer cell and normal cell cycle was studied. Staining of the genetic material of the cells was performed with propidium iodide and the technique of flow cytometry was applied for their separation, based on the amount of genetic material.
MCF7 cells were used as cancer cells, whereas primary cells and particularly embryonic mouse fibroblasts (Mouse Embryonic Fibroblasts, MEFs) were used as normal cells. The cells were incubated with the synthetic chemical compound AF-615/30368009 at a concentration of 100 µM and cultured for 23hrs in 100-mm dishes, to 80% confluency. Cells which had been incubated with only DMSO were used as a negative control sample. The next day of the incubation, cells were harvested using trypsin. […] The experiments were conducted using a Becton Dickinson flow cytometer and the data were analyzed by the WinMDi software version 2.8.
The graphs shown in Fig. 5 are representative of at least two independent experiments. The x axis represents the intensity of the fluorescence of propidium iodide and proportionally the amount of DNA content of the cells, while the y-axis corresponds to the number of events for each phase of the cell cycle.

[1] = target: T1, Geminin-miniCdt1 protein interaction (Homo sapiens, UniProt O75496+Q9H211); test: Surface plasmon resonance (SPR): inhibition of Geminin binding to immobilized miniCdt1
T1 construct: corresponds to the amino acid region 158-396 of the human Cdtl protein; Concentrations series of the full-length Geminin and the synthetic chemical compound were simultaneously injected
T1 sequence (Q9H211 158-396): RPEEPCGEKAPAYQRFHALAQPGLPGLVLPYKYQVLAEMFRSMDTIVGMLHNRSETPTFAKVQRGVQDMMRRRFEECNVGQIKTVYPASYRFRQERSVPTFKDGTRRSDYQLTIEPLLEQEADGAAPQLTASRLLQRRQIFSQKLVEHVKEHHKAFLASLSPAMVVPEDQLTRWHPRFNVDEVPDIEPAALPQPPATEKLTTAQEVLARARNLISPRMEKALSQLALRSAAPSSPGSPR
T1 sequence (O75496 1-209): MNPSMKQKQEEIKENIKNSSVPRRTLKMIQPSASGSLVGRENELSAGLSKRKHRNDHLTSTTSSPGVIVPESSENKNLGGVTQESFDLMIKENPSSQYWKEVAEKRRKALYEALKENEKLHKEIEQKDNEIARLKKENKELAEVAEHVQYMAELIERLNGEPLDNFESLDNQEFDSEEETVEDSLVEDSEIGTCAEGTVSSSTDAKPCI
Protocol: Surface plasmon resonance analysis was performed in order to determine in a quantitative manner the ability of the synthetic compound AF-615/30368009 (compound number 1 in Tables A and B, and Fig. 1) to inhibit the binding of Geminin to the protein miniCdt1 (which corresponds to the amino acid region 158-396 of the human Cdtl protein), by calculating the inhibition constant (KI).
Surface plasmon resonance spectroscopy (SPR) was performed at 25°C, using a Biosensor Biacore instrument (Biacore T100). About 6,000 RU of miniCdt1 protein were immobilized on a CMS Chip (Biacore) at pH 5.5, using amino coupling of Lysine residues. Concentrations series of the full-length Geminin and the synthetic chemical compound were simultaneously injected across the chip in a buffer containing 20 mM Hepes pH 7.5, 200 mM NaCl, 0.01% Tween 20 at a flow rate of 30µl/min. The concentrations used were 12, 36, 107, 322, 966nM for Geminin and 10 µM, 100µM, 1000µM for the compound. The injection of samples was carried out in the presence of 20% DMSO, to ensure high solubility.
In the graphs of Fig. 2, the x axis represents the different concentrations of Geminin (nM), while the y-axis the binding levels in RU (Response Units). […] The results in Fig. 2 indicate the specificity of the in vitro inhibitory effect of the synthetic chemical compound AF-615/30368009 on the Geminin-miniCdt1 protein interaction.

Ki ([1]; SPR at 25°C, Geminin 12-966nM, compound 10-1000µM, 20% DMSO, estimated value, read-out: inhibition constant (KI)): 750 ± 190 µM
SMILES: O=C(NNC(=S)N1CCOCC1)c1cnccn1 [AF-615/30368009, N'-(morpholine-4-carbothioyl)pyrazine-2-carbohydrazide]
percentage (%) of cells in G0/G1 and S phases (MCF7 cancer cells; MCF7, compared to DMSO control (Fig. 5B vs 5A)): significant increase
population of cells corresponding to the G2/M phase of the cell cycle (MCF7 cancer cells; MCF7, in comparison to DMSO control (Fig. 5B vs 5A)): extremely limited
inhibition of Geminin binding to miniCdt1 ([1]; compound at 1000 µM, SPR binding curves (Fig. 2)): exhibits inhibition of Geminin binding to miniCdt1

Source: patent EP3463364B1, “PYRAZINE DERIVATIVES FOR USE IN THE TREATMENT OF DISEASES ASSOCIATED WITH CELL CYCLE DYSREGULATION” (University of Patras, priority 2016, dated 2017)
